39 compounds from ChEMBL document CHEMBL1122963, “[3H]Batrachotoxinin A 20 alpha-benzoate binding to voltage-sensitive sodium channels: a rapid and quantitative assay for local anesthetic activity in a variety of drugs” (J Med Chem, 1985) can be followed below.

The target in experiment [1] is T1, Sodium channel alpha subunits; brain (Types I, II, III) (Homo sapiens, UniProt P35498+Q99250+Q9NY46). The experiment can be described thus: Inhibition of binding of Batrachotoxinin [3H]BTX-B to high affinity sites on voltage dependent sodium channels in a vesicular preparation from guinea pig cerebral cortex. It counts as tissue-based, Cavia porcellus.
T1 sequence (Q99250 whole entry, looked up, other chains not shown): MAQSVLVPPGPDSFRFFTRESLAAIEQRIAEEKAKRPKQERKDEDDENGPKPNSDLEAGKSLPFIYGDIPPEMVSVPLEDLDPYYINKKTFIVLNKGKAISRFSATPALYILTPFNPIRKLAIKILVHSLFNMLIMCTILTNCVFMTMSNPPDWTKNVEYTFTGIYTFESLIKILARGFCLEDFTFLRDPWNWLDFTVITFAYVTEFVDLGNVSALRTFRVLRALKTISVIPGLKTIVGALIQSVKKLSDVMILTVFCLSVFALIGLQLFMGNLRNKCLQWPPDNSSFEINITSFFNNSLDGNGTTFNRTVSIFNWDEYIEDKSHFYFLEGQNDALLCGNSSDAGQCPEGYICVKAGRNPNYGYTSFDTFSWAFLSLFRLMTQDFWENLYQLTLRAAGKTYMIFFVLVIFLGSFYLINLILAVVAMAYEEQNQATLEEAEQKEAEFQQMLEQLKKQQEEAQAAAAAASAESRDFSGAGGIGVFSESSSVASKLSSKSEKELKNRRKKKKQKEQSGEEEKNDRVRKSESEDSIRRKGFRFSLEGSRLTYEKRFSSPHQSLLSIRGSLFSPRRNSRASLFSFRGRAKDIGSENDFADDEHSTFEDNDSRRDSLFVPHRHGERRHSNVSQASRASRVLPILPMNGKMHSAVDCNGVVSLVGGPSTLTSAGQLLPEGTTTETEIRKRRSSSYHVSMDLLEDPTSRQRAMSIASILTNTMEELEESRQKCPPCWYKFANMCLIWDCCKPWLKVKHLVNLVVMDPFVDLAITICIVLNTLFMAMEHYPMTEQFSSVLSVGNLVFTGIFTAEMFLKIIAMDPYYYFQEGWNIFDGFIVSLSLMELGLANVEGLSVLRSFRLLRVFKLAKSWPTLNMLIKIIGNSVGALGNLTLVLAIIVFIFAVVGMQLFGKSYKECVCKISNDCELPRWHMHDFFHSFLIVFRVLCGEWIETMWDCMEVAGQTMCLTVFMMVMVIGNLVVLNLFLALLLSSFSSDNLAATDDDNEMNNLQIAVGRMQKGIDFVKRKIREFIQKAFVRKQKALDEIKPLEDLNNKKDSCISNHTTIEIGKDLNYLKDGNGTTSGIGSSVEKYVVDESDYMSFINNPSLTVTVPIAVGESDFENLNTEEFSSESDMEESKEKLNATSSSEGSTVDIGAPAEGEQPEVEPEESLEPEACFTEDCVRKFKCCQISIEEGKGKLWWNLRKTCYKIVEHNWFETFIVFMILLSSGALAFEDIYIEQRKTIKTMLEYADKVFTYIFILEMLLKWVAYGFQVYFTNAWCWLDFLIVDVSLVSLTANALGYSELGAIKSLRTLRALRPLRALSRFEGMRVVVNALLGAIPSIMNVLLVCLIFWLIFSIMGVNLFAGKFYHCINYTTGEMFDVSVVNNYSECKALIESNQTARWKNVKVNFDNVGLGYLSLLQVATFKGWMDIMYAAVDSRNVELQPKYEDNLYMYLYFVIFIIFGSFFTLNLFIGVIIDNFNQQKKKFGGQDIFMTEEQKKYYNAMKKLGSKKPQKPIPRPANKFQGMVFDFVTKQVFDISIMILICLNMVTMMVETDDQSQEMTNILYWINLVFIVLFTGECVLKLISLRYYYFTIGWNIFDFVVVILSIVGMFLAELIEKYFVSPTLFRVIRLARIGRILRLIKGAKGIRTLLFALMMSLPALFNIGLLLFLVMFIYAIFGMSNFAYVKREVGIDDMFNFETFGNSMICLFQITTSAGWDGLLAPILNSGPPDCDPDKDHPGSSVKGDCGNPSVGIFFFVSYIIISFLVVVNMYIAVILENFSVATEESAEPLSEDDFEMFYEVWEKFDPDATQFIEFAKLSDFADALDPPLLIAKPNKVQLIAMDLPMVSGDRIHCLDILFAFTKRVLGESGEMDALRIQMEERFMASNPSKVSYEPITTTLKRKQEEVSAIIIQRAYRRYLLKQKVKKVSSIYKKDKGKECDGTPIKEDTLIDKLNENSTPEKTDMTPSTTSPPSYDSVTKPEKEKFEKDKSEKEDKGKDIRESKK
T1 sequence (Q9NY46 whole entry, looked up, other chains not shown): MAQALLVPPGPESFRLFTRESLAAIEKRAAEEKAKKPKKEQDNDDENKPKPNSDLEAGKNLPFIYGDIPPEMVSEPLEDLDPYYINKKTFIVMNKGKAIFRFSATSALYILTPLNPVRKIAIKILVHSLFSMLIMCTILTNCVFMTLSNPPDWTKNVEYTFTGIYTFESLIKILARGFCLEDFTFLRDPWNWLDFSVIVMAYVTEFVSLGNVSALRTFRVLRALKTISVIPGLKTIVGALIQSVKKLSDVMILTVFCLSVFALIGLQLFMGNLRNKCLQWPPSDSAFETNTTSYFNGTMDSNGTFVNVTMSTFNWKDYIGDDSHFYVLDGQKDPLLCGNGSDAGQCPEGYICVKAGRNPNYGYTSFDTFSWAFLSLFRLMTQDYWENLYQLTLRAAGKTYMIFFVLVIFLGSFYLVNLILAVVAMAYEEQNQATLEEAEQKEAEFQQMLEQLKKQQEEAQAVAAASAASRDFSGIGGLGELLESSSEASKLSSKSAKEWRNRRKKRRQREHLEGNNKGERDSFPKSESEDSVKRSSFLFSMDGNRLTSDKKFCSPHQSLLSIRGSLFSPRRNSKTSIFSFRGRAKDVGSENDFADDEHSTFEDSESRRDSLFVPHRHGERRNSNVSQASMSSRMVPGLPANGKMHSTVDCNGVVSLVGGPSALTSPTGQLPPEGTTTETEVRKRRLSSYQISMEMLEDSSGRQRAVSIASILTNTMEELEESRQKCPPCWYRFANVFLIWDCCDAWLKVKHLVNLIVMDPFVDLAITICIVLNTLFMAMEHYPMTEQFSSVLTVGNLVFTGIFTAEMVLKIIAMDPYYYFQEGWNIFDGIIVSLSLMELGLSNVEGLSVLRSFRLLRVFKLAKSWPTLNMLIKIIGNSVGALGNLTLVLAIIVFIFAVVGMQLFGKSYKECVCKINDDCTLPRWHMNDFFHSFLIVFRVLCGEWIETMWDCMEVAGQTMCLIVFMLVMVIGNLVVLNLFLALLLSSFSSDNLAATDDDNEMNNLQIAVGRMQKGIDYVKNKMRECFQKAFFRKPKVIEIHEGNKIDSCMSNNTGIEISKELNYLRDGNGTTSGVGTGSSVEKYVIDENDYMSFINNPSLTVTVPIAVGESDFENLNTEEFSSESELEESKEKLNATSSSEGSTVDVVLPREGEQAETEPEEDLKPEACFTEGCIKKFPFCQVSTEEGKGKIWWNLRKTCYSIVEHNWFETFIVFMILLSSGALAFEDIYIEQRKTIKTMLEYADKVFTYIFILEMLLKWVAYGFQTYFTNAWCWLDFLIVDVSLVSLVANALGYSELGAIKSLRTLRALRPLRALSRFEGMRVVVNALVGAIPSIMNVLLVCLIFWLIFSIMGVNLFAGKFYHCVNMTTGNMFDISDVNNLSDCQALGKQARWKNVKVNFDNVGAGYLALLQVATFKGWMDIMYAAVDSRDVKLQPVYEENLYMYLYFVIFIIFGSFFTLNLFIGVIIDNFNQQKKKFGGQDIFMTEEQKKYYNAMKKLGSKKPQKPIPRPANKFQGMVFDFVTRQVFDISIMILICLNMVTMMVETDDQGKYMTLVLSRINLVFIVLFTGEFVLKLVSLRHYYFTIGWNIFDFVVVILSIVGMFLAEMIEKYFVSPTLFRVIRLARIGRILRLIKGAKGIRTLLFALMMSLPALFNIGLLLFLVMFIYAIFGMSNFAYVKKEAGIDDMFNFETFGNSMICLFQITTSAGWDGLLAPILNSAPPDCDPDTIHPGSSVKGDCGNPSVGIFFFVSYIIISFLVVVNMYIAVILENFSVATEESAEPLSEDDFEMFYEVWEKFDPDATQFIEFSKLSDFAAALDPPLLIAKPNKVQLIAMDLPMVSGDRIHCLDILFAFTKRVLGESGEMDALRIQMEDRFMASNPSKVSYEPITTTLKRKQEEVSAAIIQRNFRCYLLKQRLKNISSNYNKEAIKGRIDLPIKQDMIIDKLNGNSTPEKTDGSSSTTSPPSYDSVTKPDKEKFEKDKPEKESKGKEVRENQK
Experiment [2] deals with T1, Sodium channel alpha subunits; brain (Types I, II, III). Conditions: Cavia porcellus; Cerebral cortex; at 10 µM.
Experiment [3] has the same target. The settings on record: Cavia porcellus; Cerebral cortex; at 100 µM.
Experiment [4] has the same target. The settings on record: Cavia porcellus; Cerebral cortex; at 10 µM. This is another data set of the same source.

Regarding `CCN(CC)CCNC(=O)c1ccc(N=[N+]=[N-])cc1`, the IC50 (usually the concentration at which inhibition is half-maximal) in experiment [1] was 65 µM. Further, the inhibition (usually the relative decrease from the control value, in per cent) in experiment [2] was 13.4%; in experiment [3], 56.1%.

As for `COc1ccc(CN(CCN(C)C)c2nccs2)cc1` [ZOLAMINE], the IC50 in experiment [1] stood at 19.2 µM. The figures for the inhibition in experiment [2] and in experiment [3] were 35.9% and 82.4%, respectively.

For `CCN(CC)CC(=O)Nc1c(C)cccc1C`, the inhibition in experiment [2] amounted to 9.8%; in experiment [3] it was 31.4%.

As for `CCCC(C)C1(CC)C(=O)NC(=O)NC1=O` (stereo unspecified), the results for the inhibition in experiment [2] and in experiment [3] were 1.2% and 7.6%, respectively.

As to `COc1ccc2c(c1)c(CC(=O)O)c(C)n2C(=O)c1ccc(Cl)cc1`, the inhibition in experiment [2] is 3.3%; in experiment [3], 11.2%.

Consider `CC(C)NCC(O)c1ccc(NS(C)(=O)=O)cc1` (stereo unspecified), for which the inhibition in experiment [3] was 4.6%.

For `O=c1n(CCCN2CCN(c3cccc(Cl)c3)CC2)nc2ccccn12`, the inhibition in experiment [2] was determined as 26.2%; in experiment [3], 79.6%.

In the case of `Nc1ccncc1`, the inhibition in experiment [2] amounted to 1.2%; in experiment [3], 3.8%.

`C=C[C@@]1(C)CC(=O)[C@]2(O)[C@@]3(C)[C@@H](O)CCC(C)(C)[C@@H]3[C@H](O)[C@H](OC(C)=O)[C@@]2(C)O1` [COLFORSIN] yielded an IC50 in experiment [1] of 60 µM. Moreover, the inhibition in experiment [3] was determined as 62.8%.

With `C(=C\c1ccccc1)/CN1CCN(C(c2ccccc2)c2ccccc2)CC1` [CINNARIZINE], in experiment [4], the inhibition amounted to 94.6%.

Take `N=C1CCCCCCCCCCCN1C1CCCC1c1ccccc1` (stereo unspecified): the IC50 in experiment [1] came out at 0.8 µM. The compound also gave an inhibition in experiment [3] of 100%.

`c1ccc2c(c1)OCC(CN1CCCCC1)O2` (stereo unspecified) [PIPEROXAN] showed an IC50 in experiment [1] of 61 µM. In experiment [3], this compound registered an inhibition of 58.8%.

Take `CN/C(=N\CCSCc1nc[nH]c1C)NC#N`: the inhibition in experiment [2] was 0%; in experiment [3] it was 4.1%.

`CN(C)CCCN1c2ccccc2[S+]([O-])c2ccc(Cl)cc21` (stereo unspecified): the inhibition in experiment [2] turned out to be 18%; in experiment [3], 69.1%.

In the case of `CCCNC(C)C(=O)Nc1ccccc1C` (stereo unspecified) [PRILOCAINE], the IC50 in experiment [1] is 54 µM. Moreover, the inhibition was 14.2% in experiment [2] and 58.5% in experiment [3].

With `CN1CC[C@]23c4c5ccc(O)c4O[C@H]2[C@@H](O)C=C[C@H]3[C@H]1C5`, in experiment [3], the inhibition was found to be 5.3%.

On to `CCCCOC(=O)c1ccc(N)cc1`, for which the inhibition turned out to be 7% in experiment [2] and 36.8% in experiment [3].

Consider `COc1cc2c(cc1OC)C1CC(=O)C(CC(C)C)CN1CC2` (stereo unspecified) [TETRABENAZINE], for which the half-maximal inhibitory concentration (IC50) in experiment [1] was found to be 85 µM. Also, the values for the inhibition in experiment [2] and in experiment [3] were 7% and 55%, respectively.

With `CCCNC(C)C(=O)Nc1c(C)csc1C(=O)OC` (stereo unspecified) [ARTICAINE], the inhibition stood at 17.1% in experiment [2] and 62.2% in experiment [3].

In turn, `CC1CCCC[N+]1(C)CCCOC(=O)c1ccccc1.[I-]` (stereo unspecified) gave an IC50 in experiment [1] of 360 µM. Further, the inhibition came to 9.6% in experiment [2] and 31.4% in experiment [3].

On to `Nc1nc(Cl)nc2c1ncn2[C@@H]1O[C@H](CO)[C@@H](O)[C@H]1O`, for which the figures for the inhibition in experiment [2] and in experiment [3] were 1.3% and 3.5%, respectively.

In experiment [1], `CCOC(=O)c1ccc(N)cc1` [BENZOCAINE] returned an IC50 of 910 µM. Besides, the figures for the inhibition in experiment [2] and in experiment [3] were 5.1% and 0%, respectively.

Consider `CNC1=Nc2ccc(Cl)cc2C(c2ccccc2)=[N+]([O-])C1`, for which the results for the inhibition in experiment [2] and in experiment [3] were 4.4% and 35%, respectively.

Turning to `CCOC(=O)c1cnc2c(cnn2CC)c1NN=C(C)C`, the inhibition in experiment [2] is 8.3%; in experiment [3], 20.1%.

In turn, `CC[C@@H](CO)NC(=O)[C@@H]1C=C2c3cccc4c3c(cn4C)C[C@H]2N(C)C1` registered an inhibition in experiment [3] of 17.8%.

Take `Cc1cccc(C)c1NC(=O)C1CCCCN1C` (stereo unspecified): the inhibition was determined as 5.3% in experiment [2] and 29.3% in experiment [3].

`Cn1c(=O)c2nc(-c3ccc(S(=O)(=O)O)cc3)[nH]c2n(C)c1=O`: the inhibition in experiment [2] was determined as 1.6%; in experiment [3], 2.9%.

As to `COc1ccc(Cc2nccc3cc(OC)c(OC)cc23)cc1OC`, the inhibition in experiment [2] amounted to 11%; in experiment [3], 56%.

`COc1ccc(C2C(=O)c3ccccc3C2=O)cc1`: the inhibition in experiment [2] came out at 1.3%; in experiment [3] it was 0%.

On to `CCN(CC)CCCCCCCCOC(=O)c1cc(C)c(C)c(C)c1`, for which the inhibition in experiment [2] was 3.4%; in experiment [3], 21.6%.

On to `CCCCOc1ccc(OCCCN2CCOCC2)cc1` [PRAMOXINE], for which the IC50 in experiment [1] was 21.2 µM. For the same compound, the inhibition turned out to be 29.7% in experiment [2] and 86.3% in experiment [3].

In experiment [3], `C[C@@H]1O[C@H](n2cnc3c(N)ncnc32)C[C@H]1O` showed an inhibition of 3.5%.

As for `CC(C)CNCCOC(=O)c1ccc(N)cc1` [BUTETHAMINE], in experiment [1], the IC50 was 55 µM. Further, the inhibition in experiment [2] is 12.3%; in experiment [3] it was 63.2%.

Regarding `CN1CCc2cc3c(cc2[C@H]1[C@@H]1OC(=O)c2c1ccc1c2OCO1)OCO3`, the inhibition in experiment [3] worked out at 1.8%.

As for `CCN(CC)CCNC(=O)c1ccc(N)cc1`, the inhibition worked out at 7.8% in experiment [2] and 22.5% in experiment [3].

With `COc1ccc(C2CNC(=O)C2)cc1OC1CCCC1` (stereo unspecified), the inhibition in experiment [2] came to 3.1%; in experiment [3], 8.5%.

Take `COC(=O)[C@H]1[C@@H](OC(=O)c2ccccc2)C[C@@H]2CC[C@H]1N2C` [COCAINE]: the IC50 in experiment [1] came to 49 µM. Further, the inhibition was determined as 19.5% in experiment [2] and 63.2% in experiment [3].

Turning to `CN1C(=O)CN=C(c2ccccc2)c2cc(Cl)ccc21`, the inhibition came to 15.2% in experiment [2] and 45.4% in experiment [3].

In the case of `C[C@]12CC[C@@H]3c4ccc(O)cc4CC[C@H]3[C@@H]1CC[C@@H]2O`, the inhibition in experiment [2] came to 17.8%; in experiment [3], 53.3%.
